Test results published in PMC10838953.
Where “and” joins values, the source holds several entries; their conditions need not be identical. Equal entries are not always repeated.

Key:
RIPK4 = RIPK4 (Homo sapiens, UniProt P57078); assay: biochemical; conditions: read-out: %Ctrl @ 2000nM
FGFR1 = FGFR1 (Homo sapiens, UniProt P11362); assay: biochemical; conditions: read-out: %Ctrl @ 2000nM
TNK2 = TNK2 (Homo sapiens, UniProt Q07912); assay: biochemical; conditions: read-out: %Ctrl @ 2000nM
LATS2 = LATS2 (Homo sapiens, UniProt Q9NRM7); assay: biochemical; conditions: read-out: %Ctrl @ 2000nM
[1] = target: RPS6KA5(Kin.Dom.2-C-terminal) (Homo sapiens, UniProt O75582); assay: biochemical
PIM3 = PIM3 (Homo sapiens, UniProt Q86V86); assay: biochemical; conditions: read-out: %Ctrl @ 2000nM
EGFR(L858R) = EGFR(L858R) (Homo sapiens, UniProt P00533, L858R); assay: biochemical; conditions: read-out: %Ctrl @ 2000nM
FGFR3 = FGFR3 (Homo sapiens, UniProt P22607); assay: biochemical; conditions: read-out: %Ctrl @ 2000nM
HIPK3 = HIPK3 (Homo sapiens, UniProt Q9H422); assay: biochemical; conditions: read-out: %Ctrl @ 2000nM
CSNK1G2 = CSNK1G2 (Homo sapiens, UniProt P78368); assay: biochemical; conditions: read-out: %Ctrl @ 2000nM
MUSK = MUSK (Homo sapiens, UniProt O15146); assay: biochemical; conditions: read-out: %Ctrl @ 2000nM
BMPR1A = BMPR1A (Homo sapiens, UniProt P36894); assay: biochemical; conditions: read-out: %Ctrl @ 2000nM
MAPKAPK2 = MAPKAPK2 (Homo sapiens, UniProt P49137); assay: biochemical; conditions: read-out: %Ctrl @ 2000nM
A375 cells = conditions: 4 μM, 48 h
MKNK1 = MKNK1 (Homo sapiens, UniProt Q9BUB5); assay: biochemical; conditions: read-out: %Ctrl @ 2000nM
SRC = SRC (Homo sapiens, UniProt P12931); assay: biochemical; conditions: read-out: %Ctrl @ 2000nM
DMPK = DMPK (Homo sapiens, UniProt Q09013); assay: biochemical; conditions: read-out: %Ctrl @ 2000nM
CAMK2D = CAMK2D (Homo sapiens, UniProt Q13557); assay: biochemical; conditions: read-out: %Ctrl @ 2000nM
TAOK2 = TAOK2 (Homo sapiens, UniProt Q9UL54); assay: biochemical; conditions: read-out: %Ctrl @ 2000nM
PAK2 = PAK2 (Homo sapiens, UniProt Q13177); assay: biochemical; conditions: read-out: %Ctrl @ 2000nM
SLK = SLK (Homo sapiens, UniProt Q9H2G2); assay: biochemical; conditions: read-out: %Ctrl @ 2000nM
CSNK2A2 (CK2α′) = CSNK2A2 (CK2α′) (Homo sapiens, UniProt P19784); assay: biochemical
QSK = QSK (Homo sapiens, UniProt Q9Y2K2); assay: biochemical; conditions: read-out: %Ctrl @ 2000nM
GCN2(Kin.Dom.2,S808G) = GCN2(Kin.Dom.2,S808G) (Homo sapiens, UniProt Q9P2K8, S808G); assay: biochemical; conditions: read-out: %Ctrl @ 2000nM
[2] = target: ABL1(M351T)-phosphorylated (Homo sapiens, UniProt P00519, M351T); assay: biochemical; conditions: read-out: %Ctrl @ 2000nM
[3] = system: AKT (S129) in 786-O cells
FLT3 = FLT3 (Homo sapiens, UniProt P36888); assay: biochemical; conditions: read-out: %Ctrl @ 2000nM
PDGFRA = PDGFRA (Homo sapiens, UniProt P16234); assay: biochemical; conditions: read-out: %Ctrl @ 2000nM
AKT3 = AKT3 (Homo sapiens, UniProt Q9Y243); assay: biochemical; conditions: read-out: %Ctrl @ 2000nM
SGK3 = SGK3 (Homo sapiens, UniProt Q96BR1); assay: biochemical; conditions: read-out: %Ctrl @ 2000nM
NLK = NLK (Homo sapiens, UniProt Q9UBE8); assay: biochemical; conditions: read-out: %Ctrl @ 2000nM
DDR2 = DDR2 (Homo sapiens, UniProt Q16832); assay: biochemical; conditions: read-out: %Ctrl @ 2000nM
AMPK-alpha2 = AMPK-alpha2 (Homo sapiens, UniProt P54646); assay: biochemical; conditions: read-out: %Ctrl @ 2000nM
SGK2 = SGK2 (Homo sapiens, UniProt Q9HBY8); assay: biochemical; conditions: read-out: %Ctrl @ 2000nM
[4] = target: JAK1(JH1domain-catalytic) (Homo sapiens, UniProt P23458); assay: biochemical; conditions: read-out: %Ctrl @ 2000nM
SRPK3 = SRPK3 (Homo sapiens, UniProt Q9UPE1); assay: biochemical; conditions: read-out: %Ctrl @ 2000nM
PRKX = PRKX (Homo sapiens, UniProt P51817); assay: biochemical; conditions: read-out: %Ctrl @ 2000nM
[5] = target: TYK2(JH2domain-pseudokinase) (Homo sapiens, UniProt P29597); assay: biochemical; conditions: read-out: %Ctrl @ 2000nM
GSK3A = GSK3A (Homo sapiens, UniProt P49840); assay: biochemical; conditions: read-out: %Ctrl @ 2000nM
ABL2 = ABL2 (Homo sapiens, UniProt P42684); assay: biochemical; conditions: read-out: %Ctrl @ 2000nM
MINK = MINK (Homo sapiens, UniProt Q8N4C8); assay: biochemical; conditions: read-out: %Ctrl @ 2000nM
CSNK1A1 = CSNK1A1 (Homo sapiens, UniProt P48729); assay: biochemical; conditions: read-out: %Ctrl @ 2000nM
CSNK1A1, sequence (P48729 whole entry): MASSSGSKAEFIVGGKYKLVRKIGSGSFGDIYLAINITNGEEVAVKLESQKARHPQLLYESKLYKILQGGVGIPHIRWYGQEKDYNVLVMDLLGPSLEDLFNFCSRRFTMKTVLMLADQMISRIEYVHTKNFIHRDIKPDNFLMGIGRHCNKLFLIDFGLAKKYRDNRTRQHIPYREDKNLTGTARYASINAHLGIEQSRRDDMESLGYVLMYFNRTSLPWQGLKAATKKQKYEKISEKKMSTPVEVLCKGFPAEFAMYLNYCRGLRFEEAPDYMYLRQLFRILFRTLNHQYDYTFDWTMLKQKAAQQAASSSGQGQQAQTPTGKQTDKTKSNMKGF

RPS6KA5(Kin.Dom.2-C-terminal), sequence (O75582 388-802 limits assumed): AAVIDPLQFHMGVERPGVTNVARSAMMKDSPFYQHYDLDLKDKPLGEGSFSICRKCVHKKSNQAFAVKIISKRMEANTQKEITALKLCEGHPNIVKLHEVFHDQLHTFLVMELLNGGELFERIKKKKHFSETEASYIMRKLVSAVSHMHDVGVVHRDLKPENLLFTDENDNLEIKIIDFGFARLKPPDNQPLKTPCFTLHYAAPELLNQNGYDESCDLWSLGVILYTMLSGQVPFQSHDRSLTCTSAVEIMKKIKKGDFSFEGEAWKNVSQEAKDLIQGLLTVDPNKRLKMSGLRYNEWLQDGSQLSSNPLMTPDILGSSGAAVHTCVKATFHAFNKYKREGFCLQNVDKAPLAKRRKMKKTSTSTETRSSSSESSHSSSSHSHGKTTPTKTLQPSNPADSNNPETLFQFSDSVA
CSNK2A2 (CK2α′), sequence (P19784 whole entry): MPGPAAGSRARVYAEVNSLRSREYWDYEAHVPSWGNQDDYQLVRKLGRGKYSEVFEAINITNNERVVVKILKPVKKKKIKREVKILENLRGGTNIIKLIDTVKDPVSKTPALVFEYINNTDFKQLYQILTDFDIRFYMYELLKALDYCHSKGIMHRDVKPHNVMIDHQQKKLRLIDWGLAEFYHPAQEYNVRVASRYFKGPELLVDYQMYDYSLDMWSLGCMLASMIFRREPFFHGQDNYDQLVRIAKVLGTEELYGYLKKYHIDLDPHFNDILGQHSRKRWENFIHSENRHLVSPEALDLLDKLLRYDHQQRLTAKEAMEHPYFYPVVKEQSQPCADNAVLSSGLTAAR
PAK2, sequence (Q13177 whole entry): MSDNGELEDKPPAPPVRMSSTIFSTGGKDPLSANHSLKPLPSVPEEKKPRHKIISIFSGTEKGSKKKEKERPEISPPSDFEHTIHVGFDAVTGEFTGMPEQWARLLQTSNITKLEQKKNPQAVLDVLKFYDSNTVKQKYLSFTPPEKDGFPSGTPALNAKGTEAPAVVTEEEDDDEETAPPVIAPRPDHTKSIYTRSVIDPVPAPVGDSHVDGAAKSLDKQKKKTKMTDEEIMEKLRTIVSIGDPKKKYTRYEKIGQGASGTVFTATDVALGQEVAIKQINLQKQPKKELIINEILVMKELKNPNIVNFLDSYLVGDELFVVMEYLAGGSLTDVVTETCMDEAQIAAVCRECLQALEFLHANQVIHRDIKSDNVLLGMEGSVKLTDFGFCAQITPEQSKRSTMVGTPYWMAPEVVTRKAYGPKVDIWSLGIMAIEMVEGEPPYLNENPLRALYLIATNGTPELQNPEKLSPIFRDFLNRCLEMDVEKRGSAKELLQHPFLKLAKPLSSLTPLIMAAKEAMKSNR
PDGFRA, sequence (P16234 24-1089): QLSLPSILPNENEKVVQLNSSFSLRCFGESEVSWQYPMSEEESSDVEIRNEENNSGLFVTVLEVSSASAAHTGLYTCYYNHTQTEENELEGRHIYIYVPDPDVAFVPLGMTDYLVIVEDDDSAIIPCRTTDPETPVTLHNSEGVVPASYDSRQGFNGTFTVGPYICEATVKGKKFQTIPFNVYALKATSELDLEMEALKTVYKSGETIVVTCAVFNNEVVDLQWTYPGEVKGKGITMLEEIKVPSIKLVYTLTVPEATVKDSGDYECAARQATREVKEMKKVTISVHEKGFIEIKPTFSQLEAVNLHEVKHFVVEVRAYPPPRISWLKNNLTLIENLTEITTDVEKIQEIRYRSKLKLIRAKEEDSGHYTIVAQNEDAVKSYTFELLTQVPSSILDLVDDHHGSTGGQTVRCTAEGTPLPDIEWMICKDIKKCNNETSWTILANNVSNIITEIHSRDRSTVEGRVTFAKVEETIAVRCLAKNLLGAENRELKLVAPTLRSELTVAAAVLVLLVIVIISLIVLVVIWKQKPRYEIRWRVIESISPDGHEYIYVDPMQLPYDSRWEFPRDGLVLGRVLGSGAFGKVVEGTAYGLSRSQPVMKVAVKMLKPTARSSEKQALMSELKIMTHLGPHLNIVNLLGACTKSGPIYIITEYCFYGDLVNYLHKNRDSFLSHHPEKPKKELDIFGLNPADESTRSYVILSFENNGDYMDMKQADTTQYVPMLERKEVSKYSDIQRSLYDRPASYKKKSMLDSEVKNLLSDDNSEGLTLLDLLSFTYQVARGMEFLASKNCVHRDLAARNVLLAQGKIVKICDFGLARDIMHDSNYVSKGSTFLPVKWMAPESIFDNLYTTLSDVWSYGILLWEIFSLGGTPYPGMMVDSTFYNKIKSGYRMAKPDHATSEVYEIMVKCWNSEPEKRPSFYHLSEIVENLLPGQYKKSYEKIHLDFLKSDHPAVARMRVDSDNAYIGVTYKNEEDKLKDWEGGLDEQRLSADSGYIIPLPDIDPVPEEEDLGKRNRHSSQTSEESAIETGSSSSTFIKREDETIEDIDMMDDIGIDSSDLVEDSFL
TAOK2, sequence (Q9UL54 whole entry): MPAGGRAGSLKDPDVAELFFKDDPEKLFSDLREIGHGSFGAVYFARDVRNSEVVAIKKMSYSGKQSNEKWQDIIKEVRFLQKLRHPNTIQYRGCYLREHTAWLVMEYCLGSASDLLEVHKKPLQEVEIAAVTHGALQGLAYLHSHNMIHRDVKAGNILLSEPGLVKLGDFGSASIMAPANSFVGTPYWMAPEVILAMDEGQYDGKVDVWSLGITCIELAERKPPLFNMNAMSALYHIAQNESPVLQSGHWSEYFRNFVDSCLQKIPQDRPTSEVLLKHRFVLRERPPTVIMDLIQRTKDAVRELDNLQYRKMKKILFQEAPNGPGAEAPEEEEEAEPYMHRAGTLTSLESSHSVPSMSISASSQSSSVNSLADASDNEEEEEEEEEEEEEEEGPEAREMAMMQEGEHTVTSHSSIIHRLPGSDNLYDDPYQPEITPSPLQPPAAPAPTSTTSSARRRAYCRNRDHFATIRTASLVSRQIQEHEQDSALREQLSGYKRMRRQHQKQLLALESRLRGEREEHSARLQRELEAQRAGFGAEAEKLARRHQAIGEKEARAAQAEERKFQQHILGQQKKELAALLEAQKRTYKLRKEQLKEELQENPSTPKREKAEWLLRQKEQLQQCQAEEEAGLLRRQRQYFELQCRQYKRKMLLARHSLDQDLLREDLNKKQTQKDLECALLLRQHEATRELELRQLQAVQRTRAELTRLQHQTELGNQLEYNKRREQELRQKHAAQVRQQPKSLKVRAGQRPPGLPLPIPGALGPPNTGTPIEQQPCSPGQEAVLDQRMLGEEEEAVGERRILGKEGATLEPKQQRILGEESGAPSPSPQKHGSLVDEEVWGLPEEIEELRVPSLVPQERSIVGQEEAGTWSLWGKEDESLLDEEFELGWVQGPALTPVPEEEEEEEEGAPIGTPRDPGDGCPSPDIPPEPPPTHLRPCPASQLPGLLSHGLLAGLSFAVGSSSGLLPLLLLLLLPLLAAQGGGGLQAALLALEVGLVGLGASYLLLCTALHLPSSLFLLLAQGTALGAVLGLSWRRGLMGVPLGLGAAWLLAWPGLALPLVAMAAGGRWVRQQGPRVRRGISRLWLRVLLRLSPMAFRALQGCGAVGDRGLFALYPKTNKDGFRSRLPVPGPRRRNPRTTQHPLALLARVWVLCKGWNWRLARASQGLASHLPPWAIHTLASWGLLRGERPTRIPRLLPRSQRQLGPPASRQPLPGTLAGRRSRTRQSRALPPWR
FGFR3, sequence (P22607 23-806): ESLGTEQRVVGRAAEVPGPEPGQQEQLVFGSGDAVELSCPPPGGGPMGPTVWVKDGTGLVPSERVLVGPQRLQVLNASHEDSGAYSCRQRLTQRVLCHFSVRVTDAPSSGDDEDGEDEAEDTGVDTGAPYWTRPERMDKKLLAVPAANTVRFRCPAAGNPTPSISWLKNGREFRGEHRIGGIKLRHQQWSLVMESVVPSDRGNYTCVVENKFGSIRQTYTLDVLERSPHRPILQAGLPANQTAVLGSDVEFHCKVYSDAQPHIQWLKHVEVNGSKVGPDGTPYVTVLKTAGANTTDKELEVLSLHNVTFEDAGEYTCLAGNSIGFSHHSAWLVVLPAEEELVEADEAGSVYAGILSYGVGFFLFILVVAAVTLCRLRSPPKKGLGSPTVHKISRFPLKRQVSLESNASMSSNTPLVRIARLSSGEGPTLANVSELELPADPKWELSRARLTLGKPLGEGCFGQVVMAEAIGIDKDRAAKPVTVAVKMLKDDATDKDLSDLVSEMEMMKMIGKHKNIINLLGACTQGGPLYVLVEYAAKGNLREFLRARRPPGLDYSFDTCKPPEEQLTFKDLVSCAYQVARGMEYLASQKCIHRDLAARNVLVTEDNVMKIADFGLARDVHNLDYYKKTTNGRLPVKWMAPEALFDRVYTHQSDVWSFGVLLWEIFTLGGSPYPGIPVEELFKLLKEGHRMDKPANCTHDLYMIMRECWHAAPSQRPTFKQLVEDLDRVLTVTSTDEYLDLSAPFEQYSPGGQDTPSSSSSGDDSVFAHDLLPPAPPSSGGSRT
JAK1(JH1domain-catalytic), sequence (P23458 854-1154 limits assumed): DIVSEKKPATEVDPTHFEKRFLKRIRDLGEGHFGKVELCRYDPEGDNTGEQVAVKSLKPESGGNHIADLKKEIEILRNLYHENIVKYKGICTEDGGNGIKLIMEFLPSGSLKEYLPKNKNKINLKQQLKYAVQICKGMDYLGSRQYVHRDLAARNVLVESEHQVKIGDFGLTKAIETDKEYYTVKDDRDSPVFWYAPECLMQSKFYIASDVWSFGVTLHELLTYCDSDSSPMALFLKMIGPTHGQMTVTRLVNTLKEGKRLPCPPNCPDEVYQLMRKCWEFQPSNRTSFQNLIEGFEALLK

CC(C)COC(=O)c1[nH]c2ccc(F)cc2c1-c1cn(CC2CCN(CCNS(=O)(=O)c3ccc(CC(C)C)cc3)CC2)nn1 [AB668, isobutyl 5-fluoro-3-(1-((1-(2-((4-isobutylphenyl)sulfonamido)ethyl)piperidin-4-yl)methyl)-1H-1,2,3-triazol-4-yl)-1H-indole-2-carboxylate]
remaining activity at 2 µM (RIPK4): 100% | remaining activity at 2 µM (FGFR1): 81% | remaining activity at 2 µM (TNK2): 100% | remaining activity at 2 µM (LATS2): 89% | remaining activity at 2 µM ([1]; read-out: %Ctrl @ 2000nM): 43% | inhibition at 2 µM ([1]; read-out: percentage inhibition): > 50% | remaining activity at 2 µM (PIM3): 85% | remaining activity at 2 µM (EGFR(L858R)): 96% | remaining activity at 2 µM (FGFR3): 89% | remaining activity at 2 µM (HIPK3): 98% | remaining activity at 2 µM (CSNK1G2): 75% | remaining activity at 2 µM (MUSK): 92% | remaining activity at 2 µM (BMPR1A): 77% | remaining activity at 2 µM (MAPKAPK2): 92% | proliferation, cell death and apoptosis (A375 cells): induced significant cell proliferation arrest associated with cell death and apoptosis | remaining activity at 2 µM (MKNK1): 63% | remaining activity at 2 µM (SRC): 92% | remaining activity at 2 µM (DMPK): 90% | remaining activity at 2 µM (CAMK2D): 89% | remaining activity at 2 µM (TAOK2): 100% | remaining activity at 2 µM (PAK2): 81% | remaining activity at 2 µM (SLK): 100% | remaining activity at 2 µM (CSNK2A2 (CK2α′); read-out: %Ctrl @ 2000nM): 19% | inhibition at 2 µM (CSNK2A2 (CK2α′); read-out: inhibition (KINOMEscan profiling)): 81% | remaining activity at 2 µM (QSK): 85% | remaining activity at 2 µM (GCN2(Kin.Dom.2,S808G)): 80% | remaining activity at 2 µM [2]: 86% | pAKTS129 / AKT band quantification [3]: 0.8 and 0.5 | remaining activity at 2 µM (FLT3): 87% | remaining activity at 2 µM (PDGFRA): 86% | remaining activity at 2 µM (AKT3): 92% | remaining activity at 2 µM (SGK3): 99% | remaining activity at 2 µM (NLK): 77% | remaining activity at 2 µM (DDR2): 94% | remaining activity at 2 µM (AMPK-alpha2): 100% | remaining activity at 2 µM (SGK2): 98% | remaining activity at 2 µM [4]: 75% | remaining activity at 2 µM (SRPK3): 100% | remaining activity at 2 µM (PRKX): 69% | remaining activity at 2 µM [5]: 100% | remaining activity at 2 µM (GSK3A): 84% | remaining activity at 2 µM (ABL2): 94% | remaining activity at 2 µM (MINK): 100% | remaining activity at 2 µM (CSNK1A1): 96%
